Primed or numbered codes have the meaning given here. *: point of attachment. 2at = 2-aminothiazol-4-yl N-terminal cap, Nc1nc(*)cs1; Hdc = hexadecyl (lipid tether group); PEG3′ = not defined here

Common to all, as to assay type: cell-based
Assay [1] concerns the target T1, PAR2 (Homo sapiens, UniProt P55085).
T1 sequence (P55085 26-397): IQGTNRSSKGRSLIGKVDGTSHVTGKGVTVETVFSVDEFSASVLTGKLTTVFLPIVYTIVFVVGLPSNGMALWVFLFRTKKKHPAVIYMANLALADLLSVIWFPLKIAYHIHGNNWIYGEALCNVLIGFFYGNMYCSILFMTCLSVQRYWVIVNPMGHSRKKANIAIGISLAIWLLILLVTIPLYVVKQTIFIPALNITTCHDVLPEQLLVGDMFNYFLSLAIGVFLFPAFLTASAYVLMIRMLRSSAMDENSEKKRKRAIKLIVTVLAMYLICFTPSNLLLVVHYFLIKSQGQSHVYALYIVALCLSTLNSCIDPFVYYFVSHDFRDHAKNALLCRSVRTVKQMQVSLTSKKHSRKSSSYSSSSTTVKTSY
In words: RTCA screen (xCELLigence in vitro physiological signalling assay). The source says:
FIGS. 5A-B show in vitro physiological PAR2 agonist screening using xCELLigence. […] This compound was a biased-signalling antagonist in that it had no effect on mitogen activated protein kinase (MAPK) signalling, the other major signalling pathway activated via PAR2. […] Thus, experiments screened a series of potential PAR2 ligands with a heterocycle serine substitute followed by four amino acids (XXGR) and the PEG3-Hdc lipid tether. […], C595 and […] are novel pharmacological tools that can be used to evaluate the physiological consequences of PAR2 full and biased ligand signalling.

Assay [2] addresses T1, PAR2. In words: Mitogen activated protein kinase (MAPK) signalling activated via PAR2. The conditions noted are these: for Effect on MAPK signalling (as antagonist): C608 at nanomolar concentrations. An excerpt:
(§1) This compound was a biased-signalling antagonist in that it had no effect on mitogen activated protein kinase (MAPK) signalling, the other major signalling pathway activated via PAR2. […] C595 is closely related to the previously described potent and specific PAR2 agonist, 2-at-LIGR (SEQ ID NO: 1)-PEG3-Hdc. Thus, experiments screened a series of potential PAR2 ligands with a heterocycle serine substitute followed by four amino acids (XXGR) and the PEG3-Hdc lipid tether. […] C562, C595 and C608 are novel pharmacological tools that can be used to evaluate the physiological consequences of PAR2 full and biased ligand signalling.

Assay [3] concerns the target T1, PAR2. In words: PAR2 Ca2+ signalling in cultured human bronchial epithelial cells (16HBE14o-). On the set-up: endogenous in cells; host or cells: 16HBE14o- human bronchial epithelial cells. The conditions noted are these: for Block of PAR2 Ca2+ signalling elicited via protease activation: Alternaria alternata filtrates; for Block of PAR2 Ca2+ signalling elicited via protease activation / Block of PAR2 Ca2+ signalling elicited via peptidomimetics: 16HBE14o- cells, C608 at nanomolar concentrations; for Block of PAR2 Ca2+ signalling elicited via peptidomimetics: activation by 2-at-LIGRL-NH2.
Text: as §1

For “2at-4thiazolamine-IGR-PEG3-Hdc [Compound 23]”, the “Compound Summary as Determined by RTCA Screen” value (“Compound Summary as Determined” below) in assay [1] is “No Activity at PAR2 Detected”.

Regarding 2at-(dL)IGR-PEG3-Hdc [Compound 24], in assay [1], the “Compound Summary as Determined” value is on record as “No Activity at PAR2 Detected”. Same read-out and setting: the entry for 2at-(dT)IGR-PEG3-Hdc [Compound 26] is “No Activity at PAR2 Detected”. Still for that read-out and setting: the entry for 2at-(dl)IGR-PEG3-Hdc [Compound 25] is “No Activity at PAR2 Detected”; for 2at-DIGR-PEG3-Hdc [Compound 15] it is “No Activity at PAR2 Detected”. Still for that read-out and setting: as for 2at-HIGR-PEG3-Hdc [Compound 16], the entry is “PAR2 Agonist”. As for 2at-LIGR-PEG3-Hdc [Compound 12], the “Compound Summary as Determined” value in assay [1] is “Full PAR2 Agonist”. Consider 2at-LKGR-PEG3-Hdc [Compound 11], for which the “Compound Summary as Determined” value in assay [1] is recorded as “Full PAR2 Agonist”. Still for that read-out and setting: as for 2at-SHGR-PEG3-Hdc [Compound 8], the entry is “No Activity at PAR2 Detected”. The same measure, in the same setting: as for 2at-SIGR-PEG3-Hdc [Compound 13], the entry is “No Activity at PAR2 Detected”. On to “2at-SKGR-PEG3-Hdc (2at-SKGR-{PEG3′-Hdc}) [Compound 6]”, for which the “Antagonistic activity against peptidomimetic activation” value in assay [1] (xCELLigence in vitro physiological signalling assay) is on record as “maintained antagonistic activity”. Regarding “2at-SKGRS-PEG3-Hdc (2at-SKGRS-{PEG3′-Hdc}) [Compound 5]”, the “Compound Summary as Determined” value in assay [1] is on record as “PAR2 Antagonist”. Besides, the “Effect on MAPK signalling (as antagonist)” value in assay [2] is recorded as “no effect”. Further, in assay [3], the “Block of PAR2 Ca2+ signalling elicited via protease activation” value is listed as “blocks PAR2 Ca^2+ signalling” and the “Block of PAR2 Ca2+ signalling elicited via peptidomimetics” value is recorded as “blocks PAR2 Ca^2+ signalling”. With 2at-SRGR-PEG3-Hdc [Compound 7], the “Compound Summary as Determined” value in assay [1] was “No Activity at PAR2 Detected”.

Regarding “2at-TIGR-PEG3-Hdc (2at-TIGR-{PEG3′-Hdc}) [Compound 14]”, the “Compound Summary as Determined” value in assay [1] is “PAR2 Agonist and Antagonist”. Also, the “RTCA signalling profile (agonist/antagonist)” value in assay [1] (listed as C608) is “Partial RTCA agonist and potent anatagonist (low concentrations)”. In assay [2], the “MAPK pathway profile (agonist/antagonist)” value is reported as “Full MAPK agonist” and the “Effect on MAPK signalling (as antagonist)” value is reported as “without effects on MAPK signalling”. In assay [3], the “Ca2+ signalling profile (agonist/antagonist)” value is “Partial Ca^2+ signalling agonist and potent antagonist (low concentrations)”; the “Block of PAR2 Ca2+ signalling elicited via protease activation” value is on record as “blocked PAR2-dependent Ca^2+ signalling”; the “Block of PAR2 Ca2+ signalling elicited via peptidomimetics” value was “blocked PAR2-dependent Ca^2+ signalling”. As to 2at-TKGR-PEG3-Hdc [Compound 10], the “Compound Summary as Determined” value in assay [1] was “No Activity at PAR2 Detected”. Still for that read-out and setting: as for 2at-VIGR-PEG3-Hdc [Compound 17], the entry is “PAR2 Agonist”; as for “2at-homoserine-IGR-PEG3-Hdc [Compound 21]”, “PAR2 Agonist”; as for “2at-hydroxyproline-IGR-PEG3-Hdc [Compound 20]”, “No Activity at PAR2 Detected”.

With “2at-penicillamine-IGR-PEG3-Hdc [Compound 22]”, in assay [1], the “Compound Summary as Determined” value is “No Activity at PAR2 Detected”.
